Structures can show the parent of a compound that is named as a salt.

The results in this text go back to US20260008750A1, “COMPOUNDS, COMPOSITIONS, AND METHODS FOR REDUCING PRODUCTION OF TRIMETHYLAMINE” (The Cleveland Clinic Foundation, priority 2022, published 2026).

Chain of recombinant CutC/D (choline TMA lyase) (B4EYG1 1-1142): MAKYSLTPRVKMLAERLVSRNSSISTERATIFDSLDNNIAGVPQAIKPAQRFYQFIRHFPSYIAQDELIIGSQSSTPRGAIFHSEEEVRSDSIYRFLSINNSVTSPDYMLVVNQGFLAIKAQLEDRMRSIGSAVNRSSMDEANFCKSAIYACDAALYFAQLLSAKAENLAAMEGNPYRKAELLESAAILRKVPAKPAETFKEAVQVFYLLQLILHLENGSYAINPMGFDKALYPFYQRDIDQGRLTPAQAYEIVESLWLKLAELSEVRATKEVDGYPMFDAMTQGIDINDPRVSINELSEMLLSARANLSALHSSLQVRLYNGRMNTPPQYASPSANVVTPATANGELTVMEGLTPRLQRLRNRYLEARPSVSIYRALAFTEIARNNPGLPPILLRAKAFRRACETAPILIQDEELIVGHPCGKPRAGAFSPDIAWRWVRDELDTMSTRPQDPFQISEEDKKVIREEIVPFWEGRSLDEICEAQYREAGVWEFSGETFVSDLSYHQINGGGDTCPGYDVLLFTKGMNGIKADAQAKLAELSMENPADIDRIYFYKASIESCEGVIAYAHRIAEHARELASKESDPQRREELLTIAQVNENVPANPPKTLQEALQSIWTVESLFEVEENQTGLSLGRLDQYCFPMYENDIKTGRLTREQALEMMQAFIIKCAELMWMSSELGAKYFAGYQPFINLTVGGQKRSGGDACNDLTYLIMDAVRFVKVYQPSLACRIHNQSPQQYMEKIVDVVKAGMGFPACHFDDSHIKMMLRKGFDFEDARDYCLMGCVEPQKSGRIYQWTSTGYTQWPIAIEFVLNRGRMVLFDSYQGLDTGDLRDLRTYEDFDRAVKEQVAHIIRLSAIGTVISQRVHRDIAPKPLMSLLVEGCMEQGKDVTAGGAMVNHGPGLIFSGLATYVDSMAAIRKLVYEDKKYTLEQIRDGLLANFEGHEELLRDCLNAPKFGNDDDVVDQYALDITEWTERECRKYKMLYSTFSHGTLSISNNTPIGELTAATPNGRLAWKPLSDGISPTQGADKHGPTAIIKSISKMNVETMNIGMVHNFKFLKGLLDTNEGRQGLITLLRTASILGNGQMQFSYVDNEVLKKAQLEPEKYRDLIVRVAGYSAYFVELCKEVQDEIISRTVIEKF

This assay addresses recombinant CutC/D (choline TMA lyase) (Proteus mirabilis, UniProt B4EYG1). Put plainly: Choline TMA lyase enzymatic activity assay (d9-choline to d9-TMA) in clarified lysate. The format is biochemical, P. mirabilis. As to conditions: clarified lysate 5 mg/mL of E. coli expressing cutC/cutD; 300 μM d9-choline; 2 hours at 22° C.; d9-TMA by mass spectrometry. As for the experimental part:
Full-length, recombinant CutC/D was expressed through the use of competent E. coli cells transformed with the expression plasmids encoding for the cutC and cutD genes from P. mirabilis as described (Wang Z et al., Cell 2015 Dec. 17; 163(7):1585-95). CutC/D over-expressing cells were grown in nutrient-rich LB medium with the addition of ampicillin (100 μg/mL). The cell pellets were kept on ice and re-suspended in the lysis buffer: 200 mM HEPES, 50 mM NaCl, 10 mM MgCl2, pH 8.0. Clarified lysate was aliquoted and flash frozen for storage at −80° C. until use.
Choline TMA lyase enzymatic activity assays were conducted to measure the conversion of isotope-labeled do-choline to do-TMA. Upon thawing an aliquot of frozen clarified lysate on ice and gentle mixing, clarified lysate was diluted to 5 mg/mL in lysis buffer and the necessary co-factors were added (final concentration: 1 mM SAM, 10 mM NaDT, and 2 mM NADH). Potential inhibitor compounds (typically dissolved in H2O) were serially diluted (10-fold) and added to individual reaction mixtures (done in triplicate). The mixture was then allowed to incubate for at least 15 minutes at 22° C. before the addition of substrate (300 μM final do-choline) to initiate the reaction, which was carried out for 2 hours at room temperature (22° C.) in the dark in gas tight sealed reaction vials. The reactions were quenched with the addition of 200 μL of 1 M NaOH and 0.5 μM of the internal standard ([^13C3^15N1]TMA), vortexing and placement in ice. d9-TMA production was quantified using mass spectrometry by measuring the peak area ratio of the precursor to product ion transition of d9-TMA (m/z 69→49) to the internal standard [^13C3^15N1]TMA (m/z 64→47).
On to `C[N+](C)(CF)CCOC(=O)[C@@H](N)Cc1ccccc1` [Compound 6, 2-((L-phenylalanyl)oxy)-N-(fluoromethyl)-N,N-dimethylethan-1-aminium dibromide], for which the half-inhibitory concentration (IC50) amounted to 18 nM.

In the case of `CC(C)[C@H](N)C(=O)OCC[N+](C)(C)CF` [Compound 2, (S)-2-((2-Amino-3-methylbutanoyl)oxy)-N-(fluoromethyl)-N,N-dimethylethanaminium dibromide], the half-inhibitory concentration (IC50) worked out at 52 nM.

On to `C[C@H](N)C(=O)OCC[N+](C)(C)CF` [Compound 3, (S)-2-((2-Aminopropanoyl)oxy)-N-(fluoromethyl)-N,N-dimethylethanaminium dibromide], for which the 50% inhibitory concentration (IC50) was 31 nM.

On to `C[N+](C)(CF)CCOC(=O)[C@@H]1CCCN1` [Compound 5, N-(fluoromethyl)-N,N-dimethyl-2-(prolyloxy)ethan-1-aminium chloride hydrochloride], for which the IC50 amounted to 6.5 nM.

For the compound `C[N+](C)(CF)CCOC(=O)CN` [Compound 1, 2-(2-Aminoacetoxy)-N-(fluoromethyl)-N,N-dimethylethanaminium dibromide], the IC50 was 3.2 nM.

What is called IC50 is the concentration that gives 50% inhibition.
